Laboratory results as given in US20190192527A1, “COMPOSITIONS COMPRISING PIKFYVE INHIBITORS AND METHODS RELATED TO INHIBITION OF RANK SIGNALING” (AI Therapeutics, Inc., priority 2016, published 2019).

Key:
pKa = type: physicochemical
[1] = microsomal and hepatocyte stability studies, metabolite identification; type: in vitro ADME; conditions: rat and human microsomal and hepatocyte stability studies
Protocol: (§1) In embodiments, the apilimod for use in the compositions and methods of the invention is the free base or dimesylate salt form, MW 610.7 (dimesylate salt); tPSA 83.1; pKa 5.39 (±0.03), 4.54 (±0.27); HBD 1. […] In embodiments, an active metabolite of apilimod may be used. […] Tmax generally occurred within 1 or 2 hours after the oral dose, consistent with the rapid […] of this compound from the circulation. […] The primary metabolites are short-lived in circulation. Both apilimod free base and the dimesylate salt are highly bound ([…]) to rat, dog and human plasma proteins.

CYP3A4, CYP1A2, CYP2D6 = experiment: reaction phenotyping studies; type: in vitro ADME
Protocol: as §1

WSU-DLCL2B cell lymphoma = experiment: viability (CellTiter Glo) of CRISPR guide RNA cell pools treated with apilimod; type: cell-based; conditions: treated for 3 days
Protocol: Pools cells containing guide RNAs targeted against either the indicated genes or non-targeting (NT) guide RNAs were treated with apilimod for 3 days and viability was assayed by CellTiter Glo (Promega).
A genome-wide CRISPR screen for factors conferring resistance of B-cell lymphoma to apilimod uncovered the lysosomal regulator TFEB as well as the lysosomal and osteopetrosis-associated genes CLCN7, OSTM1, and SNX10 as mediators of apilimod-induced cytotoxicity (see FIGS. 1A-1D).

Cathepsin K = Cathepsin K maturation, western blot in RAW 264.7-derived osteoclasts; type: cell-based; conditions: differentiated with 30 ng/ml RANKL 4 days, then RANKL and apilimod 24 hours
Protocol: RAW264.7 macrophages were differentiated with 30 ng/ml RANKL for 4 days and subsequently treated with RANKL and the indicated concentration of apilimod for 24 hours prior to harvesting lysates and performing western blot for the indicated protein.

RAW264.7 macrophages = experiment: RANKL-induced differentiation of TRAP positive osteoclasts from RAW264.7 macrophages; type: cell-based
Protocol: RAW264.7 macrophages were differentiated with either vehicle or 30 ng/mL RANKL for a total of 5 days. For the last 3 days of differentiation, cells were co-treated with the indicated concentration of apilimod. Cells were subsequently stained for TRAP. Arrows highlight giant TRAP positive, multinucleated osteoclasts.
FIGS. 4A-4B: Inhibition of RANKL-induced differentiation of RAW264.7-derived osteoclasts by apilimod as indicated by a reduction in the number of TRAP-positive multinucleated cells (A) or giant osteoclasts (B). The average of triplicate wells was determined and percentages relative to untreated are shown.
(§2) Apilimod blocked the expression of RANK receptor and the transcription factors MITF, PU.1 and c-Fos in both undifferentiated and RANKL-differentiated RAW264.7 macrophages. Cells were differentiated for a total of 3 days with 30 ng/mL RANKL. On the last day of differentiation cells were co-treated with RANKL and the indicated concentration of apilimod or vehicle for 24h. […] (see FIGS. 5A-5B).

[2] = system: RANK, c-Fos, MITF, PU.1, TRAF6, OPG; experiment: RNA expression of osteogenic factors by quantitative PCR in RAW264.7 macrophages; type: cell-based; conditions: undifferentiated and RANKL-differentiated (30 ng/mL, 3 days) cells, apilimod 24h
Text: FIG. 5A-5B: Effect of apilimod treatment on the RNA expression of osteogenic factors RANK, c-Fos, microphthalmia-associated transcription factor (MITF), PU.1, TNF receptor associated factor 6 (TRAF6) and osteoprotegerin (OPG) in undifferentiated (A) or differentiated (B) RAW264.7 macrophages as assessed by quantitative PCR.
as §2

[3] = system: periodontal bone resorption; experiment: rat periodontal disease model; type: in vivo
Protocol: FIGS. 6A-6B: Graphical representation of the effect of apilimod on periodontal bone resorption (A). Daily oral doses of apilimod (8 and 20 mg/kg) reduce bone loss (B).
Moreover, apilimod was active in inhibiting in vivo osteoclast activity in a rat periodontal disease model (see FIGS. 6A-6B). In brief, Th-1 type clonal cells specific for Actinobacillus actinomycetemcomitans (Aa) 29-kDa outer membrane protein (Omp29) were activated by incubation with formalin-killed Aa and irradiated syngeneic rat spleen cells. These activated cells were then transferred intravenously through the rat tail vein (1.0×10^7 cells) into the rat. On the same day, the antigen Omp29 was injected with LPS into the left palatal maxilla gingiva; and saline was injected into the right palatal maxilla gingiva, for control measurements. Apilimod was given orally in daily doses of 8 and 20 mg/kg from the day of the induction until day 10. At the end of the ten day period, animals were sacrificed and their jaws were defleshed to allow the assessment of periodontal bone resorption, calculated as the ratio of the difference in cemento-enamel junction (CEJ-AL) distance between left and right sides versus CEJ-AL distance of right.

MPC-11 tumor cells = experiment: systemic MPC-11 syngeneic model of multiple myeloma; type: in vivo, mouse
Text: To determine if apilimod inhibition of RANKL/RANK signaling blocks the bone growth of multiple myeloma cells in vivo, the systemic MPC-11 syngeneic model was used (Laskov R et al. J Exp Med. 1970 131(3):515-41; Ferguson V L et al. Bone. 2002 30(1): 109-116). In this model, animals develop hind limb paralysis due to infiltration of multiple myeloma cells into the vertebrae that compresses the spinal column. In brief, MPC-11 tumor cells were maintained in vitro in DMEM medium supplemented with 10% horse serum at 37° C. in 5% CO2. Each mouse was then injected via the tail vein with MPC-11 tumor cells (1×10^6) in 0.1 ml of PBS for tumor development. The regimen of dosing is detailed in Table 1. At 4 days post-tumor inoculation, mice were orally administered with a vehicle or apilimod dimesylate (70 mg/kg) twice a day up to 35 days. Survival rate of vehicle-treated animal group (n=10) and apilimod-treated animal group (n=10) were monitored as an indicator of hind limb paralysis.
To directly examine the effect of apilimod on the MPC-11 tumor burden in bone, immunohistochemical staining was performed. Femurs from the in vivo experiment were fixed in 10% formalin and then rinsed in 70% ethanol and dehydrated in acetone before embedding in methacrylate. 4 μm sections were then stained in 2% Toluidine blue. […] Orange boxed region on left panel is shown at 40× magnification in the right panel. Note total effacement of bone marrow architecture and replacement with MPC-11 tumor cells in top panel. […] This effect was quantitated by generating paraffin sections from tibias of the animals and staining the sections with the multiple myeloma marker CD138 (BioLegend antibody, Clone 281-2). Values for CD138 positive staining were obtained by measuring within in a pre-defined Region of Interest (ROI) defined as 1.17 millimeter square, 200 micrometer below the tibia proximal growth plate. CD138 positive staining was measured according to standard protocols (Dempster D W et al. J Clin Endocrinol Metab. 2012 97(8):2799-2808).

osteoclast formation = conditions: in vitro assay, described in WO 2005/000404; read-out: IC50, inhibitory activity against osteoclast formation; cited from earlier work
[4] = RANKL-induced differentiation, relative to untreated
[5] = tibia sections, ROI 1.17 millimeter square, n = 5, apilimod dimesylate 70 mg/kg p.o. BID

In the case of Cc1cccc(/C=N/Nc2cc(N3CCOCC3)nc(OCCc3ccccn3)n2)c1 [apilimod], the pKa (pKa) is reported as 5.39, the primary metabolites identified [1] is reported as “Six primary metabolites” and the “enzymes that contribute to metabolism” value (CYP3A4, CYP1A2, CYP2D6) is reported as “CYP3A4 and to a lesser extent CYP1A2 and/or CYP2D6”. For the same molecule, the “effect of CRISPR-induced loss of CLCN7, OSTM1, SNX10, TFEB on viability under apilimod” value (WSU-DLCL2B cell lymphoma) was “confer resistance to apilimod”, the “cathepsin K processing (maturation)” value (Cathepsin K) was “inhibition of cathepsin K processing” and the RANKL-stimulated osteoclastogenesis (RAW264.7 macrophages; 30 ng/mL RANKL 5 days, apilimod for the last 3 days, TRAP staining) was “potently blocked”. For the same molecule, the “number of TRAP-positive multinucleated cells” value (RAW264.7 macrophages; [4]) was “reduction”, the “number of giant osteoclasts” value (RAW264.7 macrophages; [4]) was “reduction” and the “RNA expression of RANK, c-Fos, MITF, and PU.1” value [2] was “Decreases were observed”. The “RNA expression of TRAF6 or OPG” value [2] was “Significant decreases were not observed”, the “protection against Th1-mediated bone loss (periodontal bone resorption)” value ([3]; 8 mg/kg orally daily until day 10) was “significant protection” and the “protection against Th1-mediated bone loss (periodontal bone resorption)” value ([3]; 20 mg/kg orally daily until day 10) was “significant protection”. For the same molecule, the “invasion of myeloma cells in femur marrow, toluidine blue staining, qualitative” value (MPC-11 tumor cells; apilimod dimesylate 70 mg/kg p.o. BID) was “minimal invasion”, the “animals with hind limb paralysis” value (MPC-11 tumor cells; apilimod dimesylate 70 mg/kg p.o. twice a day up to 35 days, n=10) was “none” and the “Tumor Area, CD138 staining” value (MPC-11 tumor cells; [5]) was 0.012 ± 0.03 mm^2. The “Tumor Area/ Tissue Area, CD138 staining” value (MPC-11 tumor cells; [5]) was 0.010 ± 0.02% and the IC50 (osteoclast formation) was 15 nM.
